# Experimental data published in publication PMC10291551, “Characterization of a Potent and Orally Bioavailable Lys-Covalent Inhibitor of Apoptosis Protein (IAP) Antagonist” (Journal of Medicinal Chemistry, 2023).
# Legend:
# [1] = Solubility in dosing formulation; format: physicochemical; conditions: dosing formulation of 80% PBS, 10% ethanol, 10% Tween80, aqueous with cosolvent or surfactant or cyclodextrin
# [2] = pH = 7.5, T = 25 °C; cited from earlier work
# [3] = in vivo; conditions: Balb/c, mouse, plasma, 30 mg/kg
# [4] = parameters: method as in PMID 31550155; conditions: cited from earlier work
# [5] = target: T1, cIAP1-BIR3 (Homo sapiens, UniProt Q13490); experiment: DELFIA displacement assay (biotinylated AVPI peptide); format: binding
# T1 construct: from the BIR3 domains of XIAP, cIAP1, and cIAP2
smiles,measurement,setting,value
"CN[C@@H](C)C(=O)N[C@H](C(=O)N1CCC[C@H]1C(=O)N[C@@H]1CCc2c(OS(=O)(=O)F)cccc21)C1CCCCC1 [142D6, (R)-1-((S)-1-((S)-2-cyclohexyl-2-((S)-2-(methylamino)propanamido)acetyl)pyrrolidine-2-carboxamido)-2,3-dihydro-1H-inden-4-yl sulfurofluoridate]",solubility,[1],7500 µg/mL
same,solubility in aqueous buffer,[2],up to 2 mM
same,bioavailability at 24 h,[3]; ip,35%
same,bioavailability at 24 h,[3]; po,36%
CN[C@@H](C)C(=O)N[C@H](C(=O)N1CCC[C@H]1c1nc(C(=O)c2ccc(F)cc2)cs1)C1CCCCC1 [LCL161],plasma stability t1/2,[4],> 2 h
"CN[C@@H](C)C(=O)N[C@H](C(=O)N1CCC[C@H]1C(=O)N[C@@H]1CCc2c(O)cccc21)C1CCCCC1 [compound 1, (S)-1-((S)-2-cyclohexyl-2-((S)-2-(methylamino)propanamido)acetyl)-N-((R)-4-hydroxy-2,3-dihydro-1H-inden-1-yl)pyrrolidine-2-carboxamide]",IC50,[5]; after 6 h preincubation (bottom values),0.0193 µM
same,IC50,[5]; without preincubation (top values),0.0166 ± 0.0017 µM
